Reference: the supplement of paper PMC10307832

What was measured:
Assay in all cases: relative viability (nuclei count vs DMSO), 5 days (fraction); higher = more cells survive
[1] = compound: CC1=CC(=CC=C1)NC2=NC(=CS2)C3=CC=NC=C3 + NC(=O)Nc1cc(-c2cccc(F)c2)sc1C(=O)N[C@H]1CCCNC1 [AZD7762] (partner 0.2 µM)
In short: (§1)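 Cells from lung cancer lines were seeded into 1536-well plates and, one day later, dosed by pin tool. Treatments were either a single drug or a fixed dose of an anchor drug with five library-drug doses (not always all listed) in √10 steps. After 5 days, nuclei were stained in a one-step fixation (final 0.05% Triton X-100, 1% formaldehyde, 1 ug/ml Hoechst) and counted on 4× images, and relative viability is the treated-to-vehicle nuclei ratio, as the median of duplicate plates.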

[2] = compound: CC1=CC(=CC=C1)NC2=NC(=CS2)C3=CC=NC=C3 + CC(=O)c1c(C)c2cnc(Nc3ccc(N4CCNCC4)cn3)nc2n(C2CCCC2)c1=O [Palbociclib] (partner 0.5 µM)
In short: as §1

[3] = compound: CC1=CC(=CC=C1)NC2=NC(=CS2)C3=CC=NC=C3 + CCNC(=O)c1noc(-c2cc(C(C)C)c(O)cc2O)c1-c1ccc(CN2CCOCC2)cc1 [Luminespib] (partner 0.01 µM)
In short: as §1

[4] = compound: Cc1ccc(NC(=O)c2ccc(CN3CCN(C)CC3)cc2)cc1Nc1nc(-c2cccnc2)cs1 [Masitinib] + CC(=O)c1c(C)c2cnc(Nc3ccc(N4CCNCC4)cn3)nc2n(C2CCCC2)c1=O [Palbociclib] (partner 0.5 µM)
In short: as §1

Cell Line | relative viability ([1]; first compound 0.08 µM) | relative viability ([1]; first compound 0.253 µM) | relative viability ([1]; first compound 0.8 µM) | relative viability ([1]; first compound 2.53 µM) | relative viability ([1]; first compound 8 µM) | relative viability ([2]; first compound 0.08 µM) | relative viability ([2]; first compound 0.253 µM) | relative viability ([2]; first compound 0.8 µM) | relative viability ([2]; first compound 2.53 µM) | relative viability ([2]; first compound 8 µM) | relative viability ([3]; first compound 0.08 µM) | relative viability ([3]; first compound 0.253 µM) | relative viability ([3]; first compound 0.8 µM) | relative viability ([3]; first compound 2.53 µM) | relative viability ([3]; first compound 8 µM) | relative viability ([4]; first compound 0.01 µM) | relative viability ([4]; first compound 0.03162 µM) | relative viability ([4]; first compound 0.1 µM) | relative viability ([4]; first compound 0.3162 µM) | relative viability ([4]; first compound 1 µM)
HCC-44 | 0.849 | 0.853 | 0.946 | 0.876 | 0.88 | 0.912 | 0.779 | 0.851 | 0.874 | 0.805 | 0.974 | 0.939 | 1.06 | 1.01 | 1.09 | 0.973 | 0.95 | 0.985 | 0.863 | 0.962
HCC-827 | 0.352 | 0.418 | 0.53 | 0.216 | 0.28 | 0.495 | 0.435 | 0.431 | 0.518 | 0.37 | 0.618 | 0.453 | 0.649 | 0.89 | 0.726 | 0.395 | 0.466 | 0.389 | 0.613 | 0.441
NCI-H1623 | – | – | – | – | – | – | – | – | – | – | 0.496 | 0.453 | 0.369 | 0.371 | 0.391 | – | – | – | – | –
NCI-H2405 | 0.675 | 0.716 | 0.667 | – | 0.664 | 0.49 | 0.489 | 0.488 | – | 0.498 | 0.583 | 0.589 | 0.63 | 0.666 | 0.64 | 0.48 | 0.504 | 0.508 | 0.499 | 0.514
HCC-78 | 0.674 | 0.409 | 0.613 | 0.449 | 0.658 | 0.367 | 0.438 | 0.4 | 0.447 | 0.511 | – | – | – | – | – | 0.436 | 0.451 | 0.497 | 0.488 | 0.534
NCI-H1650 | – | – | – | – | – | 0.278 | 0.281 | 0.449 | 0.235 | 0.239 | 0.214 | 0.181 | 0.222 | 0.194 | 0.186 | 0.242 | 0.321 | 0.254 | 0.298 | 0.376
NCI-H1563 | – | – | – | – | – | – | – | – | – | – | 0.488 | 0.546 | 0.546 | 0.506 | 0.541 | – | – | – | – | –
COR-L23 | – | – | – | – | – | 0.256 | 0.251 | 0.232 | 0.279 | 0.303 | 0.603 | 0.648 | 0.564 | 0.659 | 0.662 | 0.296 | 0.257 | 0.298 | 0.329 | 0.279
NCI-H1648 | 0.662 | 0.568 | 0.676 | 0.469 | 0.469 | 0.242 | 0.263 | 0.281 | 0.295 | 0.302 | – | – | – | – | – | 0.297 | 0.313 | 0.289 | – | 0.228
NCI-H1703 | 0.121 | 0.127 | 0.14 | 0.148 | 0.112 | – | – | – | – | – | – | – | – | – | – | – | – | – | – | –
SW 1573 | – | – | – | – | – | 0.443 | 0.364 | 0.43 | 0.426 | 0.257 | 0.296 | 0.19 | 0.16 | 0.248 | 0.253 | 0.357 | 0.372 | 0.446 | 0.41 | 0.374
COR-L 105 | – | – | – | – | – | 0.353 | 0.45 | 0.391 | 0.421 | 0.33 | 0.727 | 0.769 | 0.755 | 0.591 | 0.665 | 0.422 | 0.394 | 0.435 | 0.382 | 0.348
NCI-H2009 | – | – | – | – | – | 0.251 | 0.309 | 0.28 | 0.279 | 0.23 | 1.01 | 0.953 | 0.905 | 0.988 | 1.05 | 0.207 | 0.214 | 0.236 | 0.17 | 0.204
SK-LU-1 | – | – | – | – | – | 0.405 | 0.404 | 0.293 | 0.479 | 0.37 | 0.205 | 0.223 | – | 0.183 | 0.227 | 0.431 | 0.362 | 0.373 | 0.405 | 0.416
HCC-366 | 0.32 | 0.322 | 0.266 | 0.24 | 0.128 | 0.372 | 0.343 | 0.274 | 0.275 | 0.257 | – | – | – | – | – | – | 0.39 | 0.388 | 0.407 | 0.375
SK-MES-1 | – | – | – | – | – | 0.259 | 0.243 | 0.328 | 0.311 | 0.32 | 0.614 | 0.515 | 0.556 | 0.749 | 0.508 | 0.306 | 0.269 | 0.318 | 0.302 | 0.336
NCI-H520 | – | – | – | – | – | 0.217 | 0.234 | 0.239 | 0.261 | 0.291 | 0.223 | 0.201 | 0.252 | 0.206 | 0.241 | 0.27 | 0.21 | 0.263 | 0.243 | 0.197
NCI-H661 | – | – | – | – | – | 0.433 | 0.395 | 0.391 | 0.386 | 0.351 | 0.887 | 0.963 | 0.885 | 0.887 | 0.863 | 0.331 | 0.374 | 0.363 | 0.372 | 0.377
NCI-H2228 | – | – | – | – | – | 0.655 | 0.797 | 0.74 | 0.749 | 0.615 | 0.107 | 0.159 | 0.194 | 0.164 | 0.17 | 0.518 | 0.723 | 1.12 | 0.844 | 0.486
NCI-H596 | 0.913 | 0.98 | 0.959 | 1.15 | 0.86 | – | – | – | – | – | 0.938 | 0.959 | 0.809 | 0.911 | 0.814 | – | – | – | – | –
NCI-H2023 | – | – | – | – | – | 0.408 | 0.428 | 0.424 | 0.355 | 0.112 | 0.716 | 0.706 | 0.889 | 0.659 | 0.427 | 0.311 | 0.385 | 0.323 | 0.259 | 0.331
